Experimental data as given in patent publication US10294202B2, “Pyrrolidinones as herbicides” (FMC Corporation, priority 2013, dated 2019).

Columns and labels:
ragweed = assay: Test A pre-/postemergence herbicide test; format: in vivo, Ambrosia elatior; conditions: for Plant response rating, Ragweed: 0 to 100 scale
In short: (§1)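 Planted in loam–sand blend; treated the same day preemergence by directed soil spray, while separately grown plants at one- to two-leaf stage got postemergence spray. Compared visually with untreated controls after approximately 10 days; 100 means complete control.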

wheat = assay: Test A pre-/postemergence herbicide test; format: in vivo, Triticum aestivum; conditions: Postemergence; for Plant response rating, Wheat: 125 g ai/ha, 0 to 100 scale, 0 is no effect, 100 is complete control; for Wheat plant response rating (0 to 100 scale, 0 is no effect, 100 is complete control): 500 g ai/ha
In short: as §1

barnyardgrass [1] = assay: Test B flooded paddy test; format: in vivo, Echinochloa crus-galli; conditions: Flood, scale of 0 to 100 where 0 is no effect and 100 is complete control
In short: (§2)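 Plants grown to 2-leaf stage; pots flooded 3 cm above soil and compound applied directly into paddy water, depth held throughout. Visual rating against untreated controls after 13 to 15 days in greenhouse, 0 (no effect) to 100 (complete control).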

galium = assay: Test A postemergence herbicide test; format: in vivo, Galium aparine; conditions: for Plant response rating, Galium: 125 g ai/ha, 0 to 100 scale, 0 is no effect, 100 is complete control; for Galium plant response rating (0 to 100 scale, 0 is no effect, 100 is complete control): 500 g ai/ha
In short: (§3)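 Injury was rated visually about 10 days after treatment on a 0 (no effect) to 100 (complete control) scale, compared with untreated plants. Test chemicals were sprayed postemergence onto greenhouse plants 2–10 cm high at one to two leaves, grown in a loam–sand blend.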

pigweed = assay: Test A pre-/postemergence herbicide test; format: in vivo, Amaranthus retroflexus; conditions: for Plant response rating, Pigweed: 0 to 100 scale
In short: as §1

rice = assay: Test B flooded paddy test; format: in vivo, Oryza sativa; conditions: Flood, scale of 0 to 100 where 0 is no effect and 100 is complete control
In short: as §2

kochia = assay: Test A pre-/postemergence herbicide test; format: in vivo, Kochia scoparia; conditions: for Plant response rating, Kochia: 0 to 100 scale
In short: as §1

blackgrass = assay: Test A postemergence herbicide test; format: in vivo, Alopecurus myosuroides; conditions: for Plant response rating, Blackgrass: 125 g ai/ha, 0 to 100 scale, 0 is no effect, 100 is complete control; for Blackgrass plant response rating (0 to 100 scale, 0 is no effect, 100 is complete control): 500 g ai/ha
In short: as §3

corn = assay: Test A pre-/postemergence herbicide test; format: in vivo, Zea mays; conditions: Postemergence; for Plant response rating, Corn: 125 g ai/ha, 0 to 100 scale, 0 is no effect, 100 is complete control; for Corn plant response rating (0 to 100 scale, 0 is no effect, 100 is complete control): 500 g ai/ha
In short: as §1

barnyardgrass [2] = assay: Test A pre-/postemergence herbicide test; format: in vivo, Echinochloa crus-galli; conditions: for Plant response rating, Barnyardgrass: 0 to 100 scale
In short: as §1

ryegrass, Italian = assay: Test A pre-/postemergence herbicide test; format: in vivo, Lolium multiflorum; conditions: for Plant response rating, Ryegrass, Italian: 0 to 100 scale
In short: as §1

ducksalad = assay: Test B flooded paddy test; format: in vivo, Heteranthera limosa; conditions: Flood, scale of 0 to 100 where 0 is no effect and 100 is complete control
In short: as §2

sedge, umbrella = assay: Test B flooded paddy test; format: in vivo, Cyperus difformis; conditions: Flood, scale of 0 to 100 where 0 is no effect and 100 is complete control
In short: as §2

giant foxtail = assay: Test A pre-/postemergence herbicide test; format: in vivo, Setaria faberii; conditions: for Plant response rating, Foxtail, Giant: 0 to 100 scale
In short: as §1

[3] = 125 g ai/ha, visual rating, 0 no effect, 100 complete control, approximately 10 days, preemergence
[4] = Postemergence, 125 g ai/ha, 0 is no effect, 100 is complete control
[5] = preemergence, 500 g ai/ha, 0 is no effect and 100 is complete control

Structure (SMILES) | Plant response rating, Ragweed (ragweed; [3]) | Plant response rating, Ragweed (ragweed; [4]) | Ragweed plant response rating (0 to 100 scale, 0 is no effect, 100 is complete control) (ragweed; Postemergence, 500 g ai/ha) | Plant response rating, Ragweed (ragweed; [5]) | Plant response rating, Wheat (wheat) | Wheat plant response rating (0 to 100 scale, 0 is no effect, 100 is complete control) (wheat) | Plant response rating, Galium (galium) | Galium plant response rating (0 to 100 scale, 0 is no effect, 100 is complete control) (galium) | Plant response rating, Pigweed (pigweed; [3]) | Plant response rating, Pigweed (pigweed; [4]) | Pigweed plant response rating (0 to 100 scale, 0 is no effect, 100 is complete control) (pigweed; Postemergence, 500 g ai/ha) | Plant response rating, Pigweed (pigweed; [5]) | Plant response rating, Kochia (kochia; [3]) | Plant response rating, Kochia (kochia; [4]) | Kochia plant response rating (0 to 100 scale, 0 is no effect, 100 is complete control) (kochia; Postemergence, 500 g ai/ha) | Plant response rating, Kochia (kochia; [5]) | Plant response rating, Blackgrass (blackgrass) | Blackgrass plant response rating (0 to 100 scale, 0 is no effect, 100 is complete control) (blackgrass) | Plant response rating, Corn (corn) | Corn plant response rating (0 to 100 scale, 0 is no effect, 100 is complete control) (corn) | further results
COc1ccc(C2CNC(=O)C2C(=O)Nc2ccccc2F)cc1C(F)(F)F (racemic) [Compound 209] | 0 | 0 | 0 | 0 | 0 | 0 | 0 | 0 | 0 | 0 | 0 | 20 | 0 | 0 | 0 | 20 | 0 | 20 | 0 | 0 | Plant response rating, Barnyardgrass (barnyardgrass [1]; 1000 g ai/ha): 45; Plant response rating, Rice (rice; 1000 g ai/ha): 0; Plant response rating, Barnyardgrass (barnyardgrass [2]; [3]): 30; Plant response rating, Barnyardgrass (barnyardgrass [2]; [4]): 60; Barnyardgrass plant response rating (0 to 100 scale, 0 is no effect, 100 is complete control) (barnyardgrass [2]; Postemergence, 500 g ai/ha): 80; Plant response rating, Barnyardgrass (barnyardgrass [2]; [5]): 60; Plant response rating, Ryegrass, Italian (ryegrass, Italian; [3]): 0; Plant response rating, Ryegrass, Italian (ryegrass, Italian; [4]): 0; Ryegrass, Italian plant response rating (0 to 100 scale, 0 is no effect, 100 is complete control) (ryegrass, Italian; Postemergence, 500 g ai/ha): 20; Plant response rating, Ryegrass, Italian (ryegrass, Italian; [5]): 20; Plant response rating, Ducksalad (ducksalad; 1000 g ai/ha): 95; Plant response rating, Sedge, Umbrella (sedge, umbrella; 1000 g ai/ha): 0; Plant response rating, Foxtail, Giant (giant foxtail; [3]): 50; Plant response rating, Foxtail, Giant (giant foxtail; [4]): 40; Foxtail, Giant plant response rating (0 to 100 scale, 0 is no effect, 100 is complete control) (giant foxtail; Postemergence, 500 g ai/ha): 70; Plant response rating, Foxtail, Giant (giant foxtail; [5]): 90
O=C1NCC(c2cccc3ccccc23)C1C(=O)Nc1ccccc1F (stereo not drawn) [Compound 216] | 0 | 0 | 0 | 0 | 0 | 0 | 0 | 0 | 0 | 0 | 0 | 0 | 0 | 0 | 0 | 0 | 0 | 0 | 0 | 0 | Plant response rating, Barnyardgrass (barnyardgrass [1]; 500 g ai/ha): 0; Plant response rating, Rice (rice; 500 g ai/ha): 0; Plant response rating, Barnyardgrass (barnyardgrass [2]; [3]): 20; Plant response rating, Barnyardgrass (barnyardgrass [2]; [4]): 0; Barnyardgrass plant response rating (0 to 100 scale, 0 is no effect, 100 is complete control) (barnyardgrass [2]; Postemergence, 500 g ai/ha): 0; Plant response rating, Barnyardgrass (barnyardgrass [2]; [5]): 60; Plant response rating, Ryegrass, Italian (ryegrass, Italian; [3]): 0; Plant response rating, Ryegrass, Italian (ryegrass, Italian; [4]): 0; Ryegrass, Italian plant response rating (0 to 100 scale, 0 is no effect, 100 is complete control) (ryegrass, Italian; Postemergence, 500 g ai/ha): 0; Plant response rating, Ryegrass, Italian (ryegrass, Italian; [5]): 0; Plant response rating, Ducksalad (ducksalad; 500 g ai/ha): 0; Plant response rating, Sedge, Umbrella (sedge, umbrella; 500 g ai/ha): 0; Plant response rating, Foxtail, Giant (giant foxtail; [3]): 40; Plant response rating, Foxtail, Giant (giant foxtail; [4]): 0; Foxtail, Giant plant response rating (0 to 100 scale, 0 is no effect, 100 is complete control) (giant foxtail; Postemergence, 500 g ai/ha): 10; Plant response rating, Foxtail, Giant (giant foxtail; [5]): 50
